Source: patent US20160257697A1, “THIOPHENE-SUBSTITUTED TETRACYCLIC COMPOUNDS AND METHODS OFUSE THEREOF FOR THE TREATMENT OF VIRAL DISEASES” (priority 2013, published 2016)
Where two headings read alike, the source gives them in different places.

Tests used:
Experiment in all cases: microbe, parasite or virus in culture
Assay type in all cases: cell-based, Hepatitis C virus (HCV)
Conditions in all cases: Replicon Assay A
HCV replicon 1AY93H = system: HCV replicon 1AY93H
Outline: (§1)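 Read-out is replicon RNA per cell by real-time RT-PCR, normalised to cyclophilin mRNA amplified in the same well. Cells were exposed to compound for 3 days at 2000 cells/well in medium with 5% fetal bovine serum and 0.5% DMSO.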

HCV replicon 1A = system: HCV replicon 1A
Outline: as §1

HCV replicon 2B = system: HCV replicon 2B
Outline: as §1

[1] = read-out: 1A Y93H IC50, replicon 1AY93H
[2] = Hepatitis C virus, read-out: 1A Y93H IC50, HCV replicon 1A Y93H
[3] = Hepatitis C virus, HCV replicon 1A
[4] = Hepatitis C virus, read-out: 2B IC50, HCV replicon 2B
[5] = Hepatitis C virus, read-out: 1A Y93H IC50 (nM), replicon 1AY93H
[6] = Hepatitis C virus, read-out: 2B IC50 (nM), replicon 2B
[7] = read-out: 1A Y93H IC50, HCV replicon 1A Y93H
[8] = read-out: 2B IC50, HCV replicon 2B

Structure (SMILES): COC(=O)NC(C(=O)N1CCC[C@H]1c1ncc(-c2ccc3c(c2)cc2n3C(c3ccc(C4CC4)s3)Oc3cc(-c4cnc([C@@H]5CCCN5C(=O)[C@@H](NC(=O)OC)C(C)C)[nH]4)cc(F)c3-2)[nH]1)C1CCOC(C)(C)C1 (single isomer, unassigned) [Compound 223]
- IC50 (HCV replicon 1AY93H; [1]): 0.24 nM
- IC50 (HCV replicon 1A; replicon 1A): 0.0025 nM
- IC50 (HCV replicon 2B; read-out: 2B IC50, replicon 2B): 0.27 nM

Structure (SMILES): CCN(CC)[C@@H](C(=O)N1CCC[C@H]1c1ncc(-c2ccc3c(c2)cc2n3C(c3cc4ccccc4s3)Oc3cc(-c4cnc([C@@H]5C[C@@H](F)CN5C(=O)[C@@H](c5ccccc5)N(CC)CC)[nH]4)ccc3-2)[nH]1)c1ccccc1 (mixture of isomers) [Compound 808]
- IC50 (HCV replicon 1AY93H; [2]): 1.2 nM
- IC50 (HCV replicon 1A; [3]): 0.026 nM
- IC50 (HCV replicon 2B; [4]): 0.32 nM

Structure (SMILES): COC(=O)NC(C(=O)N1CCC[C@H]1c1ncc(-c2ccc3c(c2)cc2n3C(c3ccc(C4CC4)s3)Oc3cc(-c4cnc([C@@H]5CCCN5C(=O)[C@@H](NC(=O)OC)C(C)C)[nH]4)cc(F)c3-2)[nH]1)C1CCOC(C)(C)C1 (single isomer, unassigned) [Compound 220]
- IC50 (HCV replicon 1AY93H; [1]): 0.52 nM
- IC50 (HCV replicon 1A; replicon 1A): 0.0021 nM
- IC50 (HCV replicon 2B; read-out: 2B IC50, replicon 2B): 0.93 nM

Structure (SMILES): COC(=O)N[C@H](C(=O)N1CCC[C@H]1c1ncc(-c2cc(F)c3c(c2)OC(c2ccc(C4CC4)s2)n2c-3cc3cc(-c4cnc([C@@H]5C[C@@H](F)CN5C(=O)[C@@H](c5ccccc5)N5CCC5)[nH]4)ccc32)[nH]1)C(C)C (mixture of isomers) [Compound 109]
- IC50 (HCV replicon 1AY93H; [5]): 4.5 nM
- IC50 (HCV replicon 1A; Hepatitis C virus, replicon 1A): 0.0058 nM
- IC50 (HCV replicon 2B; [6]): 24.4 nM

Structure (SMILES): COC(=O)NC(C(=O)N1[C@@H]2C[C@@H]2C[C@H]1c1ncc(-c2ccc3c(c2)cc2n3C(c3ccc(C(F)F)s3)Oc3cc(-c4cnc([C@@H]5CCCN5C(=O)[C@@H](NC(=O)OC)C(C)C)[nH]4)cc(F)c3-2)[nH]1)C1CCOC(C)(C)C1 (single isomer, unassigned) [Compound 414]
- IC50 (HCV replicon 1AY93H; [7]): 0.134 nM
- IC50 (HCV replicon 1A; [3]): 0.0022 nM
- IC50 (HCV replicon 2B; [8]): 0.457 nM

Structure (SMILES): COC(=O)NC(C(=O)N1CCC[C@H]1c1ncc(-c2ccc3c(c2)cc2n3C(c3ccc(C(C)C)s3)Oc3cc(-c4cnc([C@@H]5CCCN5C(=O)[C@@H](NC(=O)OC)C(C)C)[nH]4)cc(F)c3-2)[nH]1)C1CCOC(C)(C)C1 (single isomer, unassigned) [Compound 242]
- IC50 (HCV replicon 1AY93H; [1]): 0.75 nM
- IC50 (HCV replicon 1A; replicon 1A): 0.0011 nM
- IC50 (HCV replicon 2B; read-out: 2B IC50, replicon 2B): 4.42 nM

Structure (SMILES): CCc1ccc(C2Oc3cc(-c4cnc([C@@H]5CCCN5C(=O)C(NC(=O)OC)C5CCOC(C)(C)C5)[nH]4)cc(F)c3-c3cc4cc(-c5cnc([C@@H]6CCCN6C(=O)[C@@H](NC(=O)OC)C(C)C)[nH]5)ccc4n32)s1 (single isomer, unassigned) [Compound 158]
- IC50 (HCV replicon 1AY93H; [1]): 1.07 nM
- IC50 (HCV replicon 1A; replicon 1A): 0.0033 nM
- IC50 (HCV replicon 2B; read-out: 2B IC50, replicon 2B): 0.43 nM

Structure (SMILES): COC(=O)N[C@H](C(=O)N1CCC[C@H]1c1ncc(-c2cc(F)c3c(c2)OC(c2ccc(C4CC4)s2)n2c-3cc3cc(-c4cnc([C@@H]5CCCN5C(=O)[C@@H](NC(=O)OC)C5CCOCC5)[nH]4)ccc32)[nH]1)C(C)C (single isomer, unassigned) [Compound 126]
- IC50 (HCV replicon 1AY93H; [5]): 0.27 nM
- IC50 (HCV replicon 1A; Hepatitis C virus, replicon 1A): 0.0019 nM
- IC50 (HCV replicon 2B; [6]): 0.21 nM

Structure (SMILES): COC(=O)N[C@H](C(=O)N1CCC[C@H]1c1ncc(-c2cc(F)c3c(c2)OC(c2cc(C)c(C)s2)n2c-3cc3cc(-c4cnc([C@@H]5C[C@H]6C[C@H]6N5C(=O)[C@@H](NC(=O)OC)C(C)C)[nH]4)ccc32)[nH]1)C(C)C (single isomer, unassigned) [Compound 508]
- IC50 (HCV replicon 1AY93H; [7]): 0.608 nM
- IC50 (HCV replicon 1A; [3]): 0.0409 nM
- IC50 (HCV replicon 2B; [8]): 7.09 nM

Structure (SMILES): COC(=O)N[C@H](C(=O)N1CCC[C@H]1c1ncc(-c2cc(F)c3c(c2)OC(c2cc(C)c(C)s2)n2c-3cc3cc(-c4cnc([C@@H]5C[C@@H](F)CN5C(=O)[C@@H](NC(=O)OC)C(C)C)[nH]4)ccc32)[nH]1)C(C)C (single isomer, unassigned) [Compound 516]
- IC50 (HCV replicon 1AY93H; [7]): 0.0114 nM
- IC50 (HCV replicon 1A; HCV replicon 1A): 0.00191 nM
- IC50 (HCV replicon 2B; [8]): 5.2 nM

Structure (SMILES): COC(=O)N[C@H](C(=O)N1CCC[C@H]1c1ncc(-c2cc(F)c3c(c2)OC(c2cc(C)sc2C)n2c-3cc3cc(-c4cnc([C@@H]5CCCN5C(=O)[C@@H](NC(=O)OC)C(C)C)[nH]4)ccc32)[nH]1)C(C)C (single isomer, unassigned) [Compound 320]
- IC50 (HCV replicon 1AY93H; [1]): 5.5 nM
- IC50 (HCV replicon 1A; replicon 1A): 0.0011 nM
- IC50 (HCV replicon 2B; read-out: 2B IC50, replicon 2B): 5.1 nM

Structure (SMILES): COCc1ccc(C2Oc3cc(-c4cnc([C@@H]5CCCN5C(=O)[C@@H](NC(=O)OC)C(C)C)[nH]4)cc(F)c3-c3cc4cc(-c5c[nH]c([C@@H]6CCCN6C(=O)[C@@H](NC(=O)OC)C(C)C)n5)ccc4n32)s1 (single isomer, unassigned) [Compound 511]
- IC50 (HCV replicon 1AY93H; [7]): 0.401 nM
- IC50 (HCV replicon 1A; [3]): 0.00238 nM
- IC50 (HCV replicon 2B; [8]): 1.83 nM

Structure (SMILES): CCc1ccc(C2Oc3cc(-c4cnc([C@@H]5CCCN5C(=O)C(NC(=O)OC)C5CCOC(C)(C)C5)[nH]4)cc(F)c3-c3cc4cc(-c5cnc([C@@H]6CCCN6C(=O)[C@@H](NC(=O)OC)C(C)C)[nH]5)ccc4n32)s1 (single isomer, unassigned) [Compound 164]
- IC50 (HCV replicon 1AY93H; [1]): 0.13 nM
- IC50 (HCV replicon 1A; replicon 1A): 0.0015 nM
- IC50 (HCV replicon 2B; read-out: 2B IC50, replicon 2B): 0.53 nM

Structure (SMILES): CCc1ccc(C2Oc3cc(-c4c[nH]c([C@@H]5CCCN5C(=O)[C@@H](NC(=O)OC)C(C)C)n4)ccc3-c3cc4c(F)c(-c5c[nH]c([C@@H]6CCCN6C(=O)C(NC(=O)OC)C6C[C@@H](C)O[C@@H](C)C6)n5)ccc4n32)s1 (single isomer, unassigned) [Compound 360]
- IC50 (HCV replicon 1AY93H; [1]): 3.56 nM
- IC50 (HCV replicon 1A; Hepatitis C virus, replicon 1A): 0.0025 nM
- IC50 (HCV replicon 2B; read-out: 2B IC50, replicon 2B): 2.52 nM

Structure (SMILES): CCc1ccc(C2Oc3cc(-c4cnc([C@@H]5CCCN5C(=O)[C@@H](NC(=O)OC)C(C)C)[nH]4)cc(F)c3-c3cc4cc(-c5cnc([C@@H]6C[C@H]7C[C@H]7N6C(=O)C(NC(=O)OC)C6CCOC(C)(C)C6)[nH]5)ccc4n32)s1 (single isomer, unassigned) [Compound 196]
- IC50 (HCV replicon 1AY93H; [1]): 0.062 nM
- IC50 (HCV replicon 1A; replicon 1A): 0.0018 nM
- IC50 (HCV replicon 2B; read-out: 2B IC50, replicon 2B): 0.55 nM

Structure (SMILES): COC(=O)N[C@H](C(=O)N1CCC[C@H]1c1ncc(-c2ccc3c(c2)OC(c2cc4ccccc4s2)n2c-3cc3cc(-c4cnc([C@@H]5C[C@H]6C[C@H]6N5C(=O)[C@@H](NC(=O)OC)C(C)C)[nH]4)ccc32)[nH]1)C(C)C (single isomer, unassigned) [Compound 609]
- IC50 (HCV replicon 1AY93H; [7]): 18 nM
- IC50 (HCV replicon 1A; HCV replicon 1A): 0.0074 nM
- IC50 (HCV replicon 2B; [8]): 0.995 nM

Structure (SMILES): COC(=O)N[C@H](C(=O)C1NCC[C@H]1c1ncc(-c2ccc3c(c2)OC(c2ccc(C4CC4)s2)n2c-3cc3cc(-c4c[nH]c([C@@H]5C[C@H]6C[C@H]6N5C(=O)[C@@H](NC(=O)OC)C(C)C)n4)ccc32)[nH]1)C(C)C (mixture of isomers) [Compound 504]
- IC50 (HCV replicon 1AY93H; [2]): 0.245 nM
- IC50 (HCV replicon 1A; [3]): 0.0167 nM
- IC50 (HCV replicon 2B; [4]): 1.52 nM

Structure (SMILES): CCc1ccc(C2Oc3cc(-c4cnc([C@@H]5CCCN5C(=O)[C@@H](NC(=O)OC)C(C)C)[nH]4)cc(F)c3-c3cc4cc(-c5cnc([C@@H]6C[C@H]7C[C@H]7N6C(=O)C(NC(=O)OC)C6C[C@@H](C)O[C@@H](C)C6)[nH]5)ccc4n32)s1 (single isomer, unassigned) [Compound 194]
- IC50 (HCV replicon 1AY93H; [5]): 0.095 nM
- IC50 (HCV replicon 1A; Hepatitis C virus, replicon 1A): 0.0019 nM
- IC50 (HCV replicon 2B; [6]): 0.63 nM

Structure (SMILES): COC(=O)N[C@H](C(=O)N1CCC[C@H]1c1ncc(-c2cc(F)c3c(c2)OC(c2sccc2C2CC2)n2c-3cc3cc(-c4cnc([C@@H]5CCCN5C(=O)[C@@H](NC(=O)OC)C(C)C)[nH]4)ccc32)[nH]1)C(C)C (single isomer, unassigned) [Compound 25]
- IC50 (HCV replicon 1AY93H; [5]): 14.4 nM
- IC50 (HCV replicon 1A; Hepatitis C virus, replicon 1A): 0.0043 nM
- IC50 (HCV replicon 2B; [6]): 15.1 nM

Structure (SMILES): COC(=O)NC(C(=O)N1CCC[C@H]1c1ncc(-c2ccc3c(c2)cc2n3C(c3ccc(C4CC4)s3)Oc3cc(-c4cnc([C@@H]5CCCN5C(=O)[C@@H](NC(=O)OC)C(C)C)[nH]4)cc(F)c3-2)[nH]1)C1C[C@H](C)O[C@@H](C)C1 (single isomer, unassigned) [Compound 404]
- IC50 (HCV replicon 1AY93H; [1]): 1.25 nM
- IC50 (HCV replicon 1A; replicon 1A): 0.0022 nM
- IC50 (HCV replicon 2B; read-out: 2B IC50, replicon 2B): 1.67 nM
